Assays:
[1] = target: Kelch domain of human KEAP1 (321-624 aa) (Homo sapiens (Human), UniProt Q14145); experiment: KEAP1 KELCH ThermoFluor binding assay; settings: KEAP Kelch […], 1,8-ANS, pH 7.0, average of results obtained, read-out: Tf Kd;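 further: Ligand-induced melting temperature shift of E. coli-expressed KEAP1 Kelch protein, Kd estimated from concentration-response curves of ΔTm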
[2] = system: Glo-Response ARE-luc2P HEK293 cell line; experiment: ARE luciferase reporter cell-based assay; settings: Homo sapiens, HEK293, 24 h, average of results obtained;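 further: luciferase signal tracks Nrf2 activation of the ARE once compounds disrupt KEAP1-Nrf2 binding, read with One-Glo reagent, DMSO serving as low control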

Kelch domain of human KEAP1 (321-624 aa), sequence (Q14145 321-624): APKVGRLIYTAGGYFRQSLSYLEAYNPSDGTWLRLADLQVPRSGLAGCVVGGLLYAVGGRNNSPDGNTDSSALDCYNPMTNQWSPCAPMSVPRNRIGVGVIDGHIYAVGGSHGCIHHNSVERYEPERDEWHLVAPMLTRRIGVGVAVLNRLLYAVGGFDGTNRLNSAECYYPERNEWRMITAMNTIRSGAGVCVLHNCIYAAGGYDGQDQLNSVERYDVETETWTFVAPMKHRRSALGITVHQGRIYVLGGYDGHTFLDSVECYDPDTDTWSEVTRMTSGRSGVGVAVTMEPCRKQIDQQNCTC

Which results are given for `Cc1ccc([C@@H](CC(=O)O)c2ccn3c(C(F)(F)F)nnc3c2C)cc1CN1C[C@@H]2CCN2c2ncccc2S1(=O)=O` (single isomer, unassigned) [Example 293, (*R)-3-(3-(((*S)-5,5-Dioxido-7,7a, 8,9-tetrahydro-6H-azeto[2,1-d]pyrido[2,3-f][1,2,5]thiadiazepin-6-yl)methyl)-4-methylphenyl)-3-(8-methyl-3-(trifluoromethyl)-[1,2,4]triazolo[4,3-a]pyridin-7-yl)propanoic Acid]?
Kd [1]: 2.55 nM; EC50 [2]: 899 nM

What does the source list for `Cc1ccc([C@H](CC(=O)O)c2cc(OC(F)F)c3c(c2)nnn3C)cc1CN1C[C@H]2CCCCN2c2ncccc2S1(=O)=O` (single isomer, unassigned) [Example 2, (*S)-3-(7-(Difluoromethoxy)-1-methyl-1H-benzo[d][1,2,3]triazol-5-yl)-3-(3-(((*R)-5,5-dioxido-7,7a,8,9,10,11-hexahydro-6H-dipyrido[2,1-d:2′,3′-f][1,2,5]thiadiazepin-6-yl)methyl)-4-methylphenyl)propanoic Acid]?
Kd [1]: 0.162 nM; EC50 [2]: 180 nM

`Cc1ccc([C@H](c2ccn3c(C(F)(F)F)nnc3c2C)C(C)(C)C(=O)O)cc1CN1CC2(CCNCC2)Oc2ncccc2S1(=O)=O` (single isomer, unassigned) [Example 337, (*R)-3-(3-((1′,1′-Dioxidospiro[piperidine-4,4′-pyrido[2,3-b][1,4,5]oxathiazepin]-2′(3′H)-yl)methyl)-4-methylphenyl)-2,2-dimethyl-3-(8-methyl-3-(trifluoromethyl)-[1,2,4]triazolo[4,3-a]pyridin-7-yl)propanoic Acid] was tested. Which Kd [1] did it give?
The Kd was > 10000 nM.

What about the EC50 [2] of the same compound?
Its EC50 is > 20 nM.

`Cc1ccc([C@H](CC(=O)O)c2ccn3c(C(F)(F)F)nnc3c2C)cc1CN1C[C@H]2COCCN2c2ncc(Cl)cc2S1(=O)=O` (single isomer, unassigned) [Example 197, (*S)-3-(3-(((*S)-3-Chloro-5,5-dioxido-7a,8,10,11-tetrahydro-[1,4]oxazino[3,4-d]pyrido[2,3-f][1,2,5]thiadiazepin-6(7H)-yl)methyl)-4-methylphenyl)-3-(8-methyl-3-(trifluoromethyl)-[1,2,4]triazolo[4,3-a]pyridin-7-yl)propanoic Acid] was tested. Which Kd [1] did it give?
Its Kd is < 1 nM.

What about the EC50 [2] of the same compound?
The EC50 was 1.8 nM.

`CCc1nnc2c(C)c([C@@H](CC(=O)O)c3ccc(C)c(CN4C[C@H]5CCCN5c5ccccc5S4(=O)=O)c3)ccn12` (single isomer, unassigned) [Example 279, (*S)-3-(3-(((R)-5,5-Dioxido-7a,8,9,10-tetrahydrobenzo[f]pyrrolo[2,1-d][1,2,5]thiadiazepin-6(7H)-yl)methyl)-4-methylphenyl)-3-(3-ethyl-8-methyl-[1,2,4]triazolo[4,3-a]pyridin-7-yl)propanoic Acid] was tested. Which Kd [1] did it give?
The Kd was < 1 nM.

And the EC50 [2]?
Its EC50 is 235 nM.

How did the Kd [1] turn out when `Cc1ccc([C@H](c2ccn3c(C(F)(F)F)nnc3c2C)C(C)(C)C(=O)O)cc1CN1CC2(CCOCC2)Oc2nc(N[C@H](C)CN3CCOCC3)c(C)cc2S1(=O)=O` (single isomer, unassigned) [Example 362, (*R)-2,2-Dimethyl-3-(4-methyl-3-((8′-methyl-7′-(((R-1-morpholinopropan-2-yl)amino)-1′,1′-dioxido-2,3,5,6-tetrahydrospiro[pyran-4,4′-pyrido[2,3-b][1,4,5]oxathiazepin]-2′(3′H)-yl)methyl)phenyl)-3-(8-methyl-3-(trifluoromethyl)-[1,2,4]triazolo[4,3-a]pyridine-7-yl)propanoic Acid] was run?
The Kd was < 1 nM.

What about the EC50 [2] of the same compound?
The EC50 was 20.5 nM.

With `Cc1ccc([C@H](CC(=O)O)c2ccn3c(C(F)F)nnc3c2C)cc1CN1CC2(CC2)Oc2ncc(C(N)=O)cc2S1(=O)=O` (single isomer, unassigned) [Example 552, (*S)-3-(3-((8′-Carbamoyl-1′,1′-dioxidospiro[cyclopropane-1,4′-pyrido[2,3-b][1,4,5]oxathiazepin]-2′(3′H)-yl)methyl)-4-methylphenyl)-3-(3-(difluoromethyl)-8-methyl-[1,2,4]triazolo[4,3-a]pyridin-7-yl)propanoic Acid] as the compound, how does the Kd [1] read?
Its Kd is 150 nM.

And the EC50 [2]?
Its EC50 is > 20000 nM.

Which results are given for `Cc1cnc([C@@H](c2ccn3c(C(F)F)nnc3c2C)C(C)(C)C(=O)O)cc1CN1CC2(CCOCC2)Oc2nc(OCCN3CCCCC3)c(C)cc2S1(=O)=O` (single isomer, unassigned) [Example 642, (*S)-3-(3-(Difluoromethyl)-8-methyl-[1,2,4]triazolo[4,3-a]pyridin-7-yl)-2,2-dimethyl-3-(5-methyl-4-((8′-methyl-1′,1′-dioxido-7′-(2-(piperidin-1-yl)ethoxy)-2,3,5,6-tetrahydrospiro[pyran-4,4′-pyrido[2,3-b][1,4,5]oxathiazepin]-2′(3′H)-yl)methyl)pyridin-2-yl)propanoic Acid]?
Kd [1]: < 1 nM; EC50 [2]: 36.6 nM

Which Kd [1] does the source give for `Cc1ccc([C@@H](c2ccn3c(C(F)(F)F)nnc3c2C)C(C)(C)C(=O)O)cc1CN1CC2(CNC2)Oc2ncccc2S1(=O)=O` (single isomer, unassigned) [Example 338, (*S)-3-(3-((1′,1′-Dioxidospiro[azetidine-3,4′-pyrido[2,3-b][1,4,5]oxathiazepin]-2′(3′H)-yl)methyl)-4-methylphenyl)-2,2-dimethyl-3-(8-methyl-3-(trifluoromethyl)-[1,2,4]triazolo[4,3-a]pyridin-7-yl)propanoic Acid] here?
Its Kd is < 1 nM.

What about the EC50 [2] of the same compound?
Its EC50 is 13.1 nM.

With `Cc1cnc2c(c1)S(=O)(=O)N(Cc1cc([C@H](c3ccn4c(C(F)F)nnc4c3C)C(C)(C)C(=O)O)ncc1C)CC1(CC1)O2` (single isomer, unassigned) [Example 333, (*R)-3-(3-(difluoromethyl)-8-methyl-[1,2,4]triazolo[4,3-a]pyridin-7-yl)-2,2-dimethyl-3-(5-methyl-4-((8′-methyl-1′,1′-dioxidospiro[cyclopropane-1,4′-pyrido[2,3-b][1,4,5]oxathiazepin]-2′(3′H)-yl)methyl)pyridin-2-yl)propanoic Acid] as the compound, how does the Kd [1] read?
Its Kd is 1720 nM.

What about the EC50 [2] of the same compound?
Its EC50 is 3980 nM.

How did the Kd [1] turn out when `Cc1ccc([C@H](c2ccn3c(C(F)(F)F)nnc3c2C)C(C)(C)C(=O)O)cc1CN1CC2(CCOCC2)Oc2nc(NC3CC(O)C3)c(C)cc2S1(=O)=O` (single isomer, unassigned) [Example 361, (*R)-3-(3-((7′-(((1R,3R)-3-Hydroxycyclobutyl)amino)-8′-methyl-1′,1′-dioxido-2,3,5,6-tetrahydrospiro[pyran-4,4′-pyrido[2,3-b][1,4,5]oxathiazepin]-2′(3′H)-yl)methyl)-4-methylphenyl)-2,2-dimethyl-3-(8-methyl-3-(trifluoromethyl)-[1,2,4]triazolo[4,3-a]pyridine-7-yl)propanoic Acid] was run?
The Kd was < 1 nM.

And the EC50 [2]?
Its EC50 is 60.4 nM.

What does the source list for `Cc1ccc([C@@H](c2ccn3c(C(F)(F)F)nnc3c2C)C(C)(C)C(=O)O)cc1CN1CC2(CCOCC2)Oc2nc(OCCN3CCCCC3)c(C)cc2S1(=O)=O` (single isomer, unassigned) [Example 126, 2,2-Dimethyl-3-(4-methyl-3-((8′-methyl-1′,1′-dioxido3-(3-((7′-(((*S)-4-hydroxybutan-2-yl)amino)-8′-methyl-1′,1′-dioxido-7′-(2-(piperidin-1-yl)ethoxy)-2,3,5,6-tetrahydrospiro[pyran-4,4′-pyrido[2,3-b][1,4,5]oxathiazepin]-2′(3′H)-yl)methyl)phenyl)-3-(8-methyl-3-(trifluoromethyl)-[1,2,4]triazolo[4,3-a]pyridine-7-yl)propanoic Acid]?
Kd [1]: < 1 nM; EC50 [2]: 6 nM

— patent US10947252B2, “Inhibitors of KEAP1-Nrf2 protein-protein interaction” (Janssen Pharmaceutica NV, priority 2018, dated 2021)
